Measured values published in ChEMBL document CHEMBL3396981, “Synthesis and in vitro biological evaluation of 2-(phenylcarbamoyl)phenyl 4-substituted benzoates” (Bioorg Med Chem, 2015).
Converted amounts (≈) assume the structure as drawn.

Tests used:
[1] = test system: Mycobacterium tuberculosis; test: Antimycobacterial activity against Mycobacterium tuberculosis H37Rv 331/88 after 14 days by microdilution method; assay type: functional; settings: H37Rv 331/88, 336 h
[2] = test system: Mycobacterium tuberculosis; test: Antimycobacterial activity against Mycobacterium tuberculosis H37Rv 331/88 after 21 days by microdilution method; assay type: functional; settings: H37Rv 331/88, 504 h
[3] = test system: Mycobacterium avium; test: Antimycobacterial activity against INH,RIF,OFX,EMB-resistant Mycobacterium avium 330/88 after 14 days by microdilution method; assay type: functional; settings: 330/88, 336 h
[4] = test system: Mycobacterium avium; test: Antimycobacterial activity against INH,RIF,OFX,EMB-resistant Mycobacterium avium 330/88 after 21 days by microdilution method; assay type: functional; settings: 330/88, 504 h
[5] = test system: Mycobacterium kansasii; test: Antimycobacterial activity against Mycobacterium kansasii 235/80 after 7 days by microdilution method; assay type: functional; settings: 235/80, 168 h
[6] = test system: Mycobacterium kansasii; test: Antimycobacterial activity against Mycobacterium kansasii 235/80 after 14 days by microdilution method; assay type: functional; settings: 235/80, 336 h
[7] = test system: Mycobacterium kansasii; test: Antimycobacterial activity against Mycobacterium kansasii 235/80 after 21 days by microdilution method; assay type: functional; settings: 235/80, 504 h
[8] = test system: Mycobacterium kansasii; test: Antimycobacterial activity against Mycobacterium kansasii 6509/96 after 7 days by microdilution method; assay type: functional; settings: 6509/96, 168 h
[9] = test system: Mycobacterium kansasii; test: Antimycobacterial activity against Mycobacterium kansasii 6509/96 after 14 days by microdilution method; assay type: functional; settings: 6509/96, 336 h
[10] = test system: Mycobacterium kansasii; test: Antimycobacterial activity against Mycobacterium kansasii 6509/96 after 21 days by microdilution method; assay type: functional; settings: 6509/96, 504 h
[11] = test system: Staphylococcus aureus; test: Antibacterial activity against Staphylococcus aureus CCM 4516/08 after 24 hrs by broth microdilution method; assay type: functional; settings: CCM 4516/08, 24 h
[12] = test system: Staphylococcus aureus; test: Antibacterial activity against Staphylococcus aureus CCM 4516/08 after 48 hrs by broth microdilution method; assay type: functional; settings: CCM 4516/08, 48 h
[13] = test system: Staphylococcus aureus; test: Antibacterial activity against methicillin-resistant Staphylococcus aureus H 5996/08 after 24 hrs by broth microdilution method; assay type: functional; settings: H 5996/08, 24 h
[14] = test system: Staphylococcus aureus; test: Antibacterial activity against methicillin-resistant Staphylococcus aureus H 5996/08 after 48 hrs by broth microdilution method; assay type: functional; settings: H 5996/08, 48 h
[15] = test system: Staphylococcus epidermidis; test: Antibacterial activity against Staphylococcus epidermidis H 6966/08 after 24 hrs by broth microdilution method; assay type: functional; settings: H 6966/08, 24 h
[16] = test system: Staphylococcus epidermidis; test: Antibacterial activity against Staphylococcus epidermidis H 6966/08 after 48 hrs by broth microdilution method; assay type: functional; settings: H 6966/08, 48 h
[17] = test system: Enterococcus sp.; test: Antibacterial activity against Enterococcus sp. J 14365/08 after 24 hrs by broth microdilution method; assay type: functional; settings: J 14365/08, 24 h
[18] = test system: Enterococcus sp.; test: Antibacterial activity against Enterococcus sp. J 14365/08 after 48 hrs by broth microdilution method; assay type: functional; settings: J 14365/08, 48 h
[19] = test system: Trichosporon asahii; test: Antifungal activity against Trichosporon asahii 1188 after 24 hrs by broth microdilution method; assay type: functional; settings: Trichosporon asahii, 1188, 24 h
[20] = test system: Trichosporon asahii; test: Antifungal activity against Trichosporon asahii 1188 after 48 hrs by broth microdilution method; assay type: functional; settings: Trichosporon asahii, 1188, 48 h
[21] = test system: HepG2; test: Cytostatic activity against human HepG2 cells after 72 hrs by MTT assay; assay type: functional, cell-based; settings: HepG2, 72 h
[22] = test system: HepG2; test: Cytotoxicity against human HepG2 cells after 72 hrs by MTT assay; assay type: cell-based; settings: HepG2, 72 h
[23] = Selectivity index, ratio of IC50 for human HepG2 cells to MIC for Mycobacterium tuberculosis; assay type: toxicity, cell-based; settings: read-out: Selectivity Index
[24] = Selectivity index, ratio of IC50 for human HepG2 cells to MIC for atypical mycobacteria

Compound	MIC [1] [µM]	MIC [2] [µM]	MIC [3] [µM]	MIC [4] [µM]	MIC [5] [µM]	MIC [6] [µM]	MIC [7] [µM]	MIC [8] [µM]	MIC [9] [µM]	MIC [10] [µM]	MIC [11] [µM]	MIC [12] [µM]	MIC [13] [µM]	MIC [14] [µM]	MIC [15] [µM]	MIC [16] [µM]	MIC [17] [µM]	MIC [18] [µM]	selectivity ratio [23]	Selectivity Index [24]	also measured
O=C(Oc1ccc(Cl)cc1C(=O)Nc1ccc(C(F)(F)F)cc1)c1ccc(C(F)(F)F)cc1	1 (≈ 0.488 µg/mL)	1 (≈ 0.488 µg/mL)	1 (≈ 0.488 µg/mL)	4 (≈ 1.95 µg/mL)	1 (≈ 0.488 µg/mL)	2 (≈ 0.976 µg/mL)	4 (≈ 1.95 µg/mL)	1 (≈ 0.488 µg/mL)	2 (≈ 0.976 µg/mL)	4 (≈ 1.95 µg/mL)											
Cc1ccc(C(=O)Oc2ccc(Br)cc2C(=O)Nc2ccc(C(F)(F)F)cc2)cc1	1 (≈ 0.478 µg/mL)	1 (≈ 0.478 µg/mL)	4 (≈ 1.91 µg/mL)	8 (≈ 3.83 µg/mL)	1 (≈ 0.478 µg/mL)	2 (≈ 0.957 µg/mL)	2 (≈ 0.957 µg/mL)	2 (≈ 0.957 µg/mL)	2 (≈ 0.957 µg/mL)	4 (≈ 1.91 µg/mL)	> 125	> 125	> 125	> 125	> 125	> 125	> 125	> 125	> 50	>6.25	MIC [19]: > 125 µM; MIC [20]: > 125 µM; IC50 [21]: 26.8 µM; IC50 [22]: > 50 µM
O=C(Oc1ccc(Br)cc1C(=O)Nc1ccc(C(F)(F)F)cc1)c1ccccc1	1 (≈ 0.464 µg/mL)	1 (≈ 0.464 µg/mL)	4 (≈ 1.86 µg/mL)	4 (≈ 1.86 µg/mL)	2 (≈ 0.928 µg/mL)	2 (≈ 0.928 µg/mL)	2 (≈ 0.928 µg/mL)	2 (≈ 0.928 µg/mL)	2 (≈ 0.928 µg/mL)	2 (≈ 0.928 µg/mL)											
Nc1ccc(C(=O)O)c(O)c1 [AMINOSALICYLIC ACID]	62.5 (≈ 9.57 µg/mL)	62.5 (≈ 9.57 µg/mL)	32 (≈ 4.9 µg/mL)	125 (≈ 19.1 µg/mL)	125 (≈ 19.1 µg/mL)	1000 (≈ 153 µg/mL)	> 1000	32 (≈ 4.9 µg/mL)	125 (≈ 19.1 µg/mL)	500 (≈ 76.6 µg/mL)									35.8	<2.2	
Cc1ccc(C(=O)Oc2ccc(Cl)cc2C(=O)Nc2ccc(C(F)(F)F)cc2)cc1	0.5 (≈ 0.217 µg/mL)	0.5 (≈ 0.217 µg/mL)	4 (≈ 1.74 µg/mL)	4 (≈ 1.74 µg/mL)	1 (≈ 0.434 µg/mL)	1 (≈ 0.434 µg/mL)	2 (≈ 0.868 µg/mL)	1 (≈ 0.434 µg/mL)	2 (≈ 0.868 µg/mL)	2 (≈ 0.868 µg/mL)	> 250	> 250	> 250	> 250	> 250	> 250	> 250	> 250	> 100	>12.5	MIC [19]: > 250 µM; MIC [20]: > 250 µM; IC50 [21]: 6.9 µM; IC50 [22]: > 50 µM
